Measurements as given in patent US9682060B2, “Small molecules that induce intrinsic pathway apoptosis” (The Board of Trustees of the University of Illinois, priority 2015, dated 2017).
Read-outs that look alike come from different tables or passages of the source. Starred links: 1 amine or outer side, 2 acyl side, 3 side chain; linkers in the order of their positions; H or OH if unused. Positions of bridges follow the written chain, without caps; N, C: chain ends. Non-standard residues stand in square brackets, D forms with d. Residues, ends and D or L forms follow the SMILES beside them. Chains are numbered I, II in the order given. Actinocin(9to1) = Cc1c2oc3c(C)ccc(C(=O)[*:1])c3nc-2c(C(=O)[*:2])c(N)c1=O; NMeV = CN[C@H](C(=O)O)C(C)C; Sar = CNCC(=O)O

Experiments:
U-937 cells [1] = assay: Annexin V/PI cell viability analysis
U-937 cells [2] = assay: Protection assays using small molecule inhibitors (protection from Raptinal, AV/PI); type: cell-based, Human; details: U-937 cells pretreated 2 hours with agent (concentrations of Table 3), then 10 μM Raptinal 2 hours
Description: Protection Assays Using Small Molecule Inhibitors.
. The cells were then co-treated with Raptinal at 10 μM for 2 hours prior to analysis by propidium iodide/FITC-annexin V staining and flow cytometry.

[3] = system: cancer cell lines (HL-60, SK-MEL-5, U-937); assay: Initial screens against cancer cell lines; type: cell-based, Human; details: cancer cells treated 1 hour, extensive washing to remove compound, read at 24-hour mark
U-937 cells [4] = type: cell-based, Human; details: 20 minute treatment, dihydroethidium, flow cytometry
Description: Measurement of Cellular ROS Production.
U-937 cells (1 mL of 5×10^5 cells/mL) in Hank's buffered salt solution (HBSS) containing 5 mM glucose were treated with DMSO, 2 or 10 μM Raptinal, 10 μM thapsigargin, 100 μM etoposide (1% DMSO final) and incubated in the presence of 5 μM dihydroethidium a 37° C., 5% CO2 incubator for 20 minutes. […]. The levels of ethidium were assessed by flow cytometry. Live cells were analyzed based on gating on the forward and side scatter properties and the geometric mean of ethidium staining was determined using the software FCS Express.

[5] = system: adherent cell lines (HOS, H1993, SK-MEL-5, MIA PaCa-2); assay: Adherent cell lines: cell death by AV/PI staining and immunoblots; type: cell-based, Human; details: adherent cell lines; 10 μM (FIG. 1G)
[6] = U-937 cells, 10 μM, time course AV/PI, based on data in FIG. 1F

| Compound | Time to 50% death (U-937 cells [1]; [6]) | protection from Raptinal-induced cell death (U-937 cells [2]) | further results |
| --- | --- | --- | --- |
| c1ccc(CN(CCN(Cc2ccccn2)Cc2ccccn2)Cc2ccccn2)nc1 [TPEN] | 12 h | – | – |
| COC1=C2C[C@@H](C)C[C@H](OC)[C@H](O)[C@@H](C)/C=C(\C)[C@H](OC(N)=O)[C@@H](OC)/C=C\C=C(/C)C(=O)NC(=CC1=O)C2=O [Geldanamycin] | >36 h | – | – |
| N#CC(C#N)=NNc1ccc(OC(F)(F)F)cc1 [FCCP] | – | significant to quantitative protection | – |
| C=C(C)[C@H]1Cc2c(ccc3c2O[C@@H]2COc4cc(OC)c(OC)cc4[C@@H]2C3=O)O1 [Rotenone] | 20 h | significant to quantitative protection | – |
| CO[C@H]1C[C@@H]2CC[C@@H](C)[C@@](O)(O2)C(=O)C(=O)N2CCCC[C@H]2C(=O)O[C@H]([C@H](C)C[C@@H]2CC[C@@H](O)[C@H](OC)C2)CC(=O)[C@H](C)/C=C(\C)[C@@H](O)[C@@H](OC)C(=O)[C@H](C)C[C@H](C)/C=C/C=C/C=C/1C [Rapamycin] | >36 h | – | – |
| O=S(=O)(O)c1cc(N=C=S)ccc1C=Cc1ccc(N=C=S)cc1S(=O)(=O)O [DIDS] | – | significant protection | – |
| CO[C@@]12[C@H](COC(N)=O)C3=C(C(=O)C(C)=C(N)C3=O)N1C[C@@H]1N[C@@H]12 [Mitomycin C] | 20 h | – | – |
| N.N.[Cl][Pt][Cl] [Cisplatin, reference compound] | >36 h | – | cell death after short treatment and washout [3]: do not have a similar effect |
| CC[C@]1(O)C[C@H]2CN(CCc3c([nH]c4ccccc34)[C@@](C(=O)OC)(c3cc4c(cc3OC)N(C=O)[C@H]3[C@@](O)(C(=O)OC)[C@H](OC(C)=O)[C@]5(CC)C=CCN6CC[C@]43[C@@H]65)C2)C1 [Vincristine] | 14 h | – | – |
| CC(=O)O[C@H]1C(=O)[C@@]2(C)[C@H]([C@H](OC(=O)c3ccccc3)[C@]3(O)C[C@H](OC(=O)[C@H](O)[C@@H](NC(=O)c4ccccc4)c4ccccc4)C(C)=C1C3(C)C)[C@]1(OC(C)=O)CO[C@@H]1C[C@@H]2O [Paclitaxel, reference compound] | 18 h | – | cell death after short treatment and washout [3]: do not have a similar effect |
| Cc1c2oc3c(C)ccc(C(=O)N[C@@H]4C(=O)N[C@H](C(C)C)C(=O)N5CCC[C@H]5C(=O)N(C)CC(=O)N(C)[C@@H](C(C)C)C(=O)O[C@@H]4C)c3nc-2c(C(=O)N[C@@H]2C(=O)N[C@H](C(C)C)C(=O)N3CCC[C@H]3C(=O)N(C)CC(=O)N(C)[C@@H](C(C)C)C(=O)O[C@@H]2C)c(N)c1=O [actinomycin D] (I: T[dV]P[Sar][NMeV] / II: T[dV]P[Sar][NMeV]; ester I:1-I:C, II:1-II:C; linker I:N-II:N via Actinocin(9to1)) | – | did not prevent or delay Raptinal-induced apoptosis | – |
| C/C=C(/C)C(=O)O[C@H]1C(C)=C2[C@H]([C@@H]1OC(=O)CCCCCCC)[C@@](C)(OC(C)=O)C[C@H](OC(=O)CCC)[C@@]1(O)[C@H]2OC(=O)[C@@]1(C)O [Thapsigargin, reference compound] | 14 h | – | production of reactive oxygen species (superoxide anion radicals) (U-937 cells [4]): rapid accumulation of superoxide anion radicals |
| O=C1C(=O)N(Cc2ccc(Cl)c(Cl)c2)c2ccccc21 [AA2] | >36 h | – | – |
| Tunicamycin | 24 h | – | – |
| CN[C@@H](C)C(=O)N[C@H]1CCCC[C@H]2CC[C@@H](C(=O)N[C@@H](c3ccccc3)c3cn(CCCCc4ccc(CCCCn5cc([C@@H](NC(=O)[C@@H]6CC[C@@H]7CCCC[C@H](NC(=O)[C@H](C)NC)C(=O)N76)c6ccccc6)nn5)cc4)nn3)N2C1=O [SM-164] | >36 h | – | – |
| CC(C)[C@H](NC(=O)c1ccc2ccccc2n1)C(=O)N[C@@H](CC(=O)O)C(=O)COc1c(F)cccc1F [Q-VD-OPh] | – | quantitatively blocked the loss in cell viability | – |

| Compound | Time to 50% death (U-937 cells [1]; [6]) | protection from Raptinal-induced cell death (U-937 cells [2]) | further results |
| --- | --- | --- | --- |
| COc1cc2c(c(OC)c1OC)-c1ccc(OC)c(=O)cc1[C@@H](NC(C)=O)CC2 [Colchicine] | – | – | Time to 50% death (U-937 cells [1]): 15 h |
| O=C(CC(=O)C(F)(F)F)c1cccs1 [TTFA] | – | did not confer significant protection | – |
| CC[C@@]1(O)C(=O)OCc2c1cc1n(c2=O)Cc2cc3ccccc3nc2-1 [Camptothecin] | 5 h | – | – |
| CN[C@@H]1C[C@H]2O[C@@](C)([C@@H]1OC)n1c3ccccc3c3c4c(c5c6ccccc6n2c5c31)C(=O)NC4 [Staurosporine] | 5 h | – | time of apoptotic death (U-937 cells [1]; U-937 cells, 10 μM (FIG. 1F)): 6 to 12 h; time of apoptotic death [5]: > 24 h |
| CN(NC(=O)CC(=O)NN(C)C(=S)c1ccccc1)C(=S)c1ccccc1 [Elesclomol] | >36 h | – | – |
| CC[C@@H]1/C=C/C=C/C[C@H](C)[C@H](O)[C@](C)(O)C(=O)[C@H](C)[C@@H](O)[C@H](C)C(=O)[C@H](C)[C@@H](O)[C@H](C)/C=C/C(=O)O[C@H]2[C@@H](C)[C@@H](CC1)O[C@@]1(CC[C@@H](C)[C@@H](C[C@H](C)O)O1)[C@@H]2C [oligomycin A] | – | significant to quantitative protection | – |
| Cc1cc(=O)[nH]c2c1C(=O)c1c(C)cc(=O)n(C)c1C2=O [DNQ] | 6 h | – | – |
| CCOC(=O)C1=C(N)Oc2ccc(Br)cc2C1C(C#N)C(=O)OCC (stereo not drawn) [HA-141] | >36 h | – | – |
| Cc1cc2c(C(C)C)c(O)c(O)c(C=O)c2c(O)c1-c1c(C)cc2c(C(C)C)c(O)c(O)c(C=O)c2c1O [Gossypol] | 36 h | – | – |
| C=CCc1cccc(/C=N/NC(=O)CN2CCN(Cc3ccccc3)CC2)c1O [PAC-1] | >36 h | – | – |
| C[C@@H]1C[C@@H]([C@H](O)CC2CC(=O)NC(=O)C2)C(=O)[C@@H](C)C1 [cycloheximide] | – | did not prevent or delay Raptinal-induced apoptosis | – |
| COc1cc([C@@H]2c3cc4c(cc3[C@@H](O[C@@H]3O[C@@H]5CO[C@@H](C)O[C@H]5[C@H](O)[C@H]3O)[C@H]3COC(=O)[C@H]23)OCO4)cc(OC)c1O [Etoposide, reference compound] | 5 h | – | production of reactive oxygen species (superoxide anion radicals) (U-937 cells [4]): not |
| COc1cccc2c1C(=O)c1c(O)c3c(c(O)c1C2=O)C[C@@](O)(C(=O)CO)C[C@@H]3O[C@H]1C[C@H](N)[C@H](O)[C@H](C)O1 [Doxorubicin] | 6 h | – | – |
| COc1[nH]c(=O)c(C(=O)[C@@H](C)C[C@H](C)[C@@H](Cl)CCl)c(O)c1OC [atpenin A5] | – | did not confer significant protection | – |
| Antimycin A | >36 h | significant to quantitative protection | – |
